In test [1] the test system is Olfr160. The test is described as follows: OR transcript level by RT-qPCR after in vivo odorant exposure. More on the design: species or system mouse; key to olfr160 candidate OR (RNAseq) confirmed by qPCR: The transcript downregulation of 21 out of the 26 olfactory receptor candidates obtained by RNAseq was confirmed by qPCR; false RNAseq positive candidates, namely OR candidates for which in fact mRNA was not downregulated following acetophenone exposure. To be noted: for Olfr160 mRNA level relative to unexposed controls: 5% odorant, 5 hours, in vivo, RT-qPCR. On the procedure: (§1) In vivo exposure to odorant: Starting 48 h before experiments, mice were habituated to pure DMSO on a cotton ball. 200 μl were pipetted directly onto the cotton and placed in the cage, replacing any cotton that was already in the cage for nest-making purposes.
(§2) On the day of the experiment, mice receiving odorants were transferred to a different room, where they were exposed to a cotton ball on which 200 μl of odorant diluted in pure DMSO were deposited. Exposures started in the morning between 8 and 10 am (that is two hours after lights were on) and mice were killed and dissected between 1 and 3 pm. […] If a number of different odorants were tested in the same experiment, a different overpressurized room would always be used for each odorant to avoid odor cross-contamination.
(§3) After odorant exposure, mice were killed by cervical dislocation and immediately decapitated. The main olfactory epithelia (MOE), were harvested in their entirety and transferred to a tube containing 600 μl of lysis buffer and β-mercaptoethanol (RNAeasy kit, Qiagen, following the manufacturer protocol) and a 0.5 cm diameter steel ball, and then put on ice. Samples were then homogenized using a FastPrep®-24 instrument (MP Biomedicals) at 6 m/s for 30 s and left on ice. RNA extraction was performed on all samples in parallel using the Qiagen RNeasy Mini® kit following the manufacturer's instructions. Two DNase treatments were performed on all samples: first using the Qiagen RNase-Free DNase Set® and then using the Life Technologies Ambion DNase I® kit. RNA samples were then aliquoted and stored at −80° C.
(§4) RNA concentrations were determined using an Amersham Ultrospec® 3100 Pro spectrophotometer, and RNA quality was evaluated with an Agilent Technologies 2100 Bioanalyzer®. […]
(§5) qPCR Ct values were analyzed using an in-house developed Microsoft Excel® macro file. […] Ct values were converted to quantities relative to the maximum for each given gene. Selected reference genes were then analyzed for variance using the geNorm algorithm. […]

In the next test the target is T1, Olfr730 (Mus musculus, UniProt A0A0U1RNX7).
T1 construct: from tissue; host or cells: olfactory epithelium of adult C57BL/6 mice
T1 sequence (A0A0U1RNX7 1-317): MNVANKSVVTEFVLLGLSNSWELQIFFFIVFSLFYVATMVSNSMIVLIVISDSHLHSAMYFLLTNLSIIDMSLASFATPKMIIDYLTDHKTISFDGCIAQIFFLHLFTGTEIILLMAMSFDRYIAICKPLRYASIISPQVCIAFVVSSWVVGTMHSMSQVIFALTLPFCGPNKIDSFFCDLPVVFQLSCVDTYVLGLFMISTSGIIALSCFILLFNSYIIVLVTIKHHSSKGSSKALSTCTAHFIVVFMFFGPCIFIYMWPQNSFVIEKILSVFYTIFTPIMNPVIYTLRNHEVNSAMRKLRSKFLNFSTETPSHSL
Described as above. Particulars: 5% odorant, 5 hours. On the procedure:
as §1
On the day of the experiment, mice receiving odorants were transferred to a different room, where they were exposed to a cotton ball on which 200 μl of odorant diluted in pure DMSO were deposited. Exposures started in the morning between 8 and 10 am (that is two hours after lights were on) and mice were killed and dissected between 1 and 3 pm. […]
as §4, §5
Adult C57BL/6 mice were exposed to 5% acetophenone for 5 hours, and the level of transcripts of odorant receptors' genes were measured by RT-qPCR on extracts of olfactory epithelia from these mice, as described in the materials and methods section.

The next test deals with olfr1350. Described as above. Details: species or system mouse; key: The transcript downregulation of 21 out of the 26 olfactory receptor candidates obtained by RNAseq was confirmed by qPCR; false RNAseq positive candidates, namely OR candidates for which in fact mRNA was not downregulated following acetophenone exposure. To be noted: 5% acetophenone exposure. As for the experimental part: as §1, §2, §3
(§6) RNA concentrations were determined using an Amersham Ultrospec® 3100 Pro spectrophotometer, and RNA quality was evaluated with an Agilent Technologies 2100 Bioanalyzer®. Each reverse transcription was performed with 0.5 μg RNA using the Takara Primescript® kit, in a final volume of 10 μl. Primers for reverse transcription were equal mixtures of poly-T nucleotides and random hexamers. Negative controls (omitting the reverse transcriptase enzyme) were performed for each sample. 1/14th of the cDNA preparation was used for each triplicated qPCR reaction.
(§7) qPCR Ct values were analyzed using an in-house developed Microsoft Excel® macro file. Triplicate values were compared and outliers (values with a difference higher than 0.5 Ct to their nearest neighbor) were discarded. The number of conditions with an outlying value was always less than 10% of the total number of conditions. Ct values were converted to quantities relative to the maximum for each given gene. Selected reference genes were then analyzed for variance using the geNorm algorithm. All values were normalized with the olfactory tissue-specific genes Omp and Adcy3. β-Actin was used as a non-tissue-specific reference gene to control for differences in dissection between samples.
(§8) Mice (n=6) were exposed to 5% acetophenone or to a “neutral” control condition for 5 hours. An olfactory cDNA library corresponding to each animal was deep sequenced and the ratios of odorant receptor mRNA concentrations relative to controls were plotted (FIG. 3). […] Based on transcriptional downregulation levels observed by RNAseq following acetophenone exposure, a list of 26 candidate responsive ORs was determined (FIG. 3), that reached 74% decrease (Olfr145) or even over 80% (Olfr169) relative to controls. […] The transcript downregulation of 21 out of the 26 olfactory receptor candidates obtained by RNAseq was confirmed by qPCR.

The subject of the next test is olfr1448. Described as above. More on the design: species or system mouse; key: The transcript downregulation of 21 out of the 26 olfactory receptor candidates obtained by RNAseq was confirmed by qPCR; false RNAseq positive candidates, namely OR candidates for which in fact mRNA was not downregulated following acetophenone exposure. Particulars: 5% acetophenone exposure. On the procedure: as §1, §2, §3, §6, §7, §8

The test system of another test is olfr229. The test is described as above. Details: species or system mouse; key: The transcript downregulation of 21 out of the 26 olfactory receptor candidates obtained by RNAseq was confirmed by qPCR; false RNAseq positive candidates, namely OR candidates for which in fact mRNA was not downregulated following acetophenone exposure. To be noted: 5% acetophenone exposure. As for the experimental part:
as §1, §2, §3, §6, §7, §8

Test [2] concerns Olfr1377. The test is described as follows: OR transcript downregulation by RNAseq after in vivo exposure. To be noted: 5% odorant, 5 hours, reduction larger than 20% = downregulated. More on the design: species or system mouse. As for the experimental part:
(§9) Animals were exposed to 5% acetophenone for 5 hours before RNA extraction (as previously described). cDNA libraries were generated with the Truseq RNA and DNA sample preparation kits after selection of polyA-containing mRNAs. Adapters for RNAseq multiplexing were added to the cDNAs. The cDNA libraries were sequenced with a HiSeq®2500 Sequencing system. 100 bp reads were mapped using Bowtie2 with a 28 bp seed. The differential gene expression analyses were performed with DESeq2. Because of the high sequence similarity between OR gene paralogs, some reads are mapped to multiple OR genes. These reads were removed from the analysis.
as §8

In test [3] the test system is Olfr160. Described as above. Details: species or system mouse. To be noted: 5% odorant, 5 hours, reduction larger than 20% = downregulated. As for the experimental part: as §9, §8
For another test, the system named is Olfr169. Described as above. Details: species or system mouse. To be noted: 5% odorant, 5 hours. As for the experimental part: as §9, §8
The subject of another test is Olfr983. The description is as above. Details: species or system mouse. To be noted: 5% odorant, 5 hours, reduction larger than 20% = downregulated. On the procedure:
as §9, §8

Test [4] relates to Olfr1377. Particulars: expressed in HEK cells; previously shown; read-out: EC50 as agonist of Olfr1377; cited from earlier work.

One may read the EC50 as the concentration giving half of the maximal effect. Consider `CC(=O)c1ccccc1` [acetophenone], for which, in the test on Olfr160 [1] (5% acetophenone exposure), the “olfr160 candidate OR (RNAseq) confirmed by qPCR” value was “y”. In addition, the entries for the “Olfr160 mRNA level relative to unexposed controls” value in the test on Olfr160 [1] and in the test on Olfr160 [1] (listed as Acetophenone) were “decrease” and “downregulates”, respectively. Moreover, the “Olfr730 mRNA concentration increase, fold change” value on Olfr730 is 1.4 fold. For the same molecule, the “olfr1350 candidate OR (RNAseq) confirmed by qPCR” value in the test with olfr1350 is reported as “n”. Also, the “olfr1448 candidate OR (RNAseq) confirmed by qPCR” value with olfr1448 is on record as “y”. For the same molecule, the “olfr229 candidate OR (RNAseq) confirmed by qPCR” value in the test on olfr229 was “y”. The “Olfr1377 transcript modulation (RNAseq)” value with Olfr1377 [2] is recorded as “downregulated”. Besides, in the test with Olfr160 [3], the “Olfr160 transcript modulation (RNAseq)” value is listed as “downregulated”. Also, in the test on Olfr169, the “Olfr169 transcript decrease relative to controls (RNAseq)” value is “over 80%”. The “Olfr983 transcript modulation (RNAseq)” value in the test with Olfr983 is “downregulated”. In addition, the concentration giving a half-maximal response (EC50) with Olfr1377 [4] was below 50 µM.

(Values after patent US10473645B2, “Methods for identifying a receptor for a ligand and uses thereof” (UNIVERSITE DE GENEVE, priority 2014, dated 2019).)
